Laboratory results: US20260250318A1, “COMPOSITIONS AND METHODS FOR CROSSING THE BLOOD BRAIN BARRIER” (VOYAGER THERAPEUTICS, INC., priority 2022, published 2026)

How the values were obtained:
Details in all cases: synthetic library passage 3, intravenous, relative to wild-type AAV9
[1] = tested on: brain, spinal cord, and DRG of the NHPs; experiment: NGS fold enrichment of synthetic library (passage 3) in NHPs, first cross-species screen; type: in vivo, cynomolgus macaques (Macaca fascicularis)
In short: (§1)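 Passage-3 synthetic capsid library given intravenously […] to NHPs (2-4 years) and BALB/c or C57Bl/6 mice (n=3, 6-8 weeks). After e.g. 28 days, tissue RNA was RT-PCR amplified and NGS-sequenced; values are fold enrichment of each variant relative to wild-type AAV9.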

[2] = tested on: brain; experiment: NGS fold enrichment of synthetic library (passage 3) in C57Bl/6 mice, first cross-species screen; type: in vivo
In short: as §1

[3] = tested on: brain; experiment: NGS fold enrichment of synthetic library (passage 3) in BALB/c mice, first cross-species screen; type: in vivo
In short: as §1

[4] = RNA from spinal cord of NHPs, NGS
[5] = RNA from brain of C57Bl/6 mice, NGS
[6] = RNA from brain of BALB/c mice, NGS

Row | Sequence | Fold enrichment over AAV9 in the brain of NHPs ([1]; RNA NGS, brain of NHPs) | Fold enrichment over AAV9 in the spinal cord of NHPs ([1]; RNA NGS, spinal cord of NHPs) | Fold enrichment over AAV9 in the brain of Mice (C57Bl/6) ([2]; RNA NGS, brain of C57Bl/6 mice) | Fold enrichment over AAV9 in the brain of Mice (BALB/c) ([3]; RNA NGS, brain of BALB/c mice) | Fold enrichment over AAV9 in the brain of NHPs ([1]; RNA from brain of NHPs, NGS) | Fold enrichment over AAV9 in the spinal cord of NHPs [1, 4] | Fold enrichment over AAV9 in the brain of Mice (C57Bl/6) [2, 5] | Fold enrichment over AAV9 in the brain of Mice (BALB/c) [3, 6]
1 | GSGTLYPQSQNQQT | 2.761 fold | 5.558 fold | 0.324 fold | 0.160 fold | – | – | – | –
2 | GSGTQIPSQQNQQT | 3.112 fold | 1.224 fold | 0.470 fold | 0.151 fold | – | – | – | –
3 | GSGTSGKTGKNQQT | – | – | – | – | 1.333 fold | 4.033 fold | 0.358 fold | 0.676 fold
4 | GSGTVHAATQNQQT | 1.721 fold | 1.676 fold | 0.563 fold | 0.476 fold | – | – | – | –
5 | GSGVHGVSSQNQQT | 1.781 fold | 4.519 fold | 1.504 fold | 0.951 fold | – | – | – | –
6 | GSGVMTHVLQNQQT | 2.692 fold | 0.347 fold | 0.370 fold | 0.533 fold | – | – | – | –
7 | GSGVQHSLPQNQQT | 1.639 fold | 0.764 fold | 0.440 fold | 0.387 fold | – | – | – | –
8 | GSGVSARMVQNQQT | – | – | – | – | 1.299 fold | 0.624 fold | 0.870 fold | 0.697 fold
9 | GSGVSTQLLQNQQT | – | – | – | – | 1.367 fold | 2.467 fold | 0.928 fold | 0.509 fold
10 | GSGVSTYNIQNQQT | 3.609 fold | 2.912 fold | 0.769 fold | 0.520 fold | – | – | – | –
11 | GSGYASHVQQNQQT | 2.146 fold | 3.038 fold | 1.157 fold | 0.758 fold | – | – | – | –
12 | GSGYKAARPQNQQT | 1.803 fold | 0.000 fold | 1.418 fold | 0.337 fold | – | – | – | –
13 | GSGYKDTYGQNQQT | 1.091 fold | 0.854 fold | 0.717 fold | 0.448 fold | – | – | – | –
14 | GSGYLRESPQNQQT | 2.311 fold | 0.878 fold | 0.331 fold | 0.677 fold | – | – | – | –
15 | GSGYNQPHLQNQQT | 1.435 fold | 4.512 fold | 0.711 fold | 0.395 fold | – | – | – | –
16 | GSGYSMSQAQNQQT | 2.250 fold | 4.479 fold | 0.519 fold | 0.329 fold | – | – | – | –
17 | GSGYTSLFLQNQQT | 2.710 fold | 0.010 fold | 0.490 fold | 1.044 fold | – | – | – | –
18 | GSGYVITGSQNQQT | – | – | – | – | 1.125 fold | 6.271 fold | 0.971 fold | 0.248 fold
19 | GSHGHYASGQKQQT | 2.016 fold | 0.000 fold | 0.895 fold | 0.685 fold | – | – | – | –
20 | GSHSQSGHGQNQQT | 1.413 fold | 1.240 fold | 0.696 fold | 0.318 fold | – | – | – | –
